Test results reported in patent US7728012B2, “Carboxamide compounds and their use as calpain inhibitors” (Abbott GmbH & Co. KG, priority 2006, dated 2010).

What was measured:
Assay type in all cases: biochemical
[1] = target: T1, cathepsin L isolated from human liver (Homo sapiens, UniProt P07711); assay: Cathepsin L kinetic fluorescence enzyme inhibition assay; settings: selectivity ratio versus calpain I
T1 construct: cathepsin L—isolated from human liver; purchased Calbiochem 219402; host or cells: human liver (tissue isolate)
T1 sequence (P07711 114-333): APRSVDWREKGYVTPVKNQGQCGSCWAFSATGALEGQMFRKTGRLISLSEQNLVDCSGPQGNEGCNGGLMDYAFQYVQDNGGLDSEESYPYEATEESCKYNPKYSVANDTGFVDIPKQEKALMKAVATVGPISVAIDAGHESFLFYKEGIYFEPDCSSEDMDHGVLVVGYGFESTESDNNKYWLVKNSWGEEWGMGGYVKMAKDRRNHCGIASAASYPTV
Method in brief: (§1)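 Inhibition is measured at room temperature in cysteine-containing MES buffer, pH 6.0, by continuous fluorescence at 460 nm. Cathepsin S (0.5 nM) uses 20 μM Z-Val-Val-Arg-AMC; L (1 nM) and B (0.25 nM) use Z-Phe-Arg-AMC at 2 and 100 μM respectively.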

[2] = target: T2, calpain-I isolated from human erythrocytes (Homo sapiens, UniProt P07384); assay: Calpain I kinetic fluorescence enzyme inhibition assay; settings: apparent Ki from IC50 by Cheng-Prussoff; average of 2 to 4 dose-effect plots
T2 construct: calpain-I—isolated from human erythrocytes; purchased Calbiochem 208713; host or cells: human erythrocytes (tissue isolate)
T2 sequence (P07384 1-714): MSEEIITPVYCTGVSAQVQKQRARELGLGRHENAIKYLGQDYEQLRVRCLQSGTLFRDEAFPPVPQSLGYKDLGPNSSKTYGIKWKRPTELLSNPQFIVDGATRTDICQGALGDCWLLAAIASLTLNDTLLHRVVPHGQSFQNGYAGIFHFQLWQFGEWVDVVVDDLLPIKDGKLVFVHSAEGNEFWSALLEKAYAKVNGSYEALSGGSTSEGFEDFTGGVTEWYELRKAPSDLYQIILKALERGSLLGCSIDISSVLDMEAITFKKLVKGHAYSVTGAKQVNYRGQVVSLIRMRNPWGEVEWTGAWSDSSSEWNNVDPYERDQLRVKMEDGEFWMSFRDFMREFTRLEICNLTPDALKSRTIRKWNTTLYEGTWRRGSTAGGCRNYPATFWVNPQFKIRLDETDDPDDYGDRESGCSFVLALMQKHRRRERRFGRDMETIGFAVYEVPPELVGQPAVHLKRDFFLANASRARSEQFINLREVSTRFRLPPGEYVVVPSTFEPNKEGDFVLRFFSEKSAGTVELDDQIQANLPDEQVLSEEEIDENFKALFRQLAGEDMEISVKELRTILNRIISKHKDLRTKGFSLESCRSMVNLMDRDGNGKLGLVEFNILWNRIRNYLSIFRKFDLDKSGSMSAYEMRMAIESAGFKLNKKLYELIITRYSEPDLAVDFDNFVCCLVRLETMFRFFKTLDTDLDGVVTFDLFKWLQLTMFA
T2 sequence (P04632 1-268 partner): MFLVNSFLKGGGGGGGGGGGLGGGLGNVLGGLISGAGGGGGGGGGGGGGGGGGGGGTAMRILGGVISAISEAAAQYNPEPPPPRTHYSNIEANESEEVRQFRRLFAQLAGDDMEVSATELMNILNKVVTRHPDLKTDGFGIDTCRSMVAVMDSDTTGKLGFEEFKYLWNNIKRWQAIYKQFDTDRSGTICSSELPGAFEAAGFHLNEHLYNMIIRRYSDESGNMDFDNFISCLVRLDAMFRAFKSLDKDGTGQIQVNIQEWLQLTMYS

[3] = target: T3, cathepsin K activated from recombinant human procathepsin K (Homo sapiens, UniProt P43235); assay: Cathepsin K kinetic fluorescence enzyme inhibition assay; settings: selectivity ratio versus calpain I
T3 construct: purchased Calbiochem 342001; host or cells: E. coli
T3 sequence (P43235 115-329): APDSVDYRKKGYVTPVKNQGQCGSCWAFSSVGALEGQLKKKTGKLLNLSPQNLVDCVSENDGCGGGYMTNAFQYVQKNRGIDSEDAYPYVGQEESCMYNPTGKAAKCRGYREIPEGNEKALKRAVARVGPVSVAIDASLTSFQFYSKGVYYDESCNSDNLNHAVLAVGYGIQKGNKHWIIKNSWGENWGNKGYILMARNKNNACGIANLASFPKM
Protocol: The following solutions and buffers were employed: • HBS (for 40 ml): 800 μl M HEPES; 2.16 ml 100 mM KCl; 4.8 ml 1M NaCl; 3.59 ml 5% glucose; 60 μl μM MgSO4; 400 μl 100 mM Na pyruvate, 28.19 ml water; pH 7.2-7.5. • lysis buffer (for 20 ml): 400 μl M Tris pH 8.2; 2.74 ml 1M NaCl; 520 μl 0.5M EDTA; 2 ml 10% triton X-100; 0.8 ml (=1:25) CompletePlus (1 tablet/2 ml H2O); 200 μl 100 mM Pefabloc; 13.34 ml water, pH 8.2. • TBST (10×) (for 1 l): 100 mM Tris (12.1 g); 1.5M NaCl (87 g); 1% Tween 20 (10 g), adjusted to pH 8. I Enzyme Inhibition In Vitro: • Testing for blockade of the corresponding enzymic activities was carried out by means of kinetic fluorescence assays (excitation 390 nm, emission 460 nm). • Apparent Ki values were calculated from the experimentally determined IC50 values by the Cheng-Prussoff relation assuming a reversible competitive enzyme inhibition. The Km values of the substrates used under the assay conditions indicated above were: 90 μM (Z-Phe-Arg-AMC, cathepsin B), 10 μM (Z-Gly-Pro-Arg-AMC, cathepsin K), 2 μM (Z-Phe-Arg-AMC, cathepsin L), and 30 μM (Z-Val-Val-Arg-AMC, cathepsin S). • The indicated Ki values are averages of the inhibition constants calculated on the basis of 2 to 4 independent dose-effect plots.
The following assays were used: • 1. Calpain I: • 20 nM calpain-I—isolated from human erythrocytes (Calbiochem #208713), 100 μM Suc-Leu-Tyr-AMC (Bachem #1-1355) as substrate in buffer with 62 mM imidazole, 0.3 mM CaCl2, 0.10% CHAPS, 0.05% BSA, 1 mM DTT at pH 7.3 and room temperature. • 2. Cathepsin B: • 0.25 nM cathepsin B—isolated from human liver (Calbiochem #219362), 100 μM Z-Phe-Arg-AMC (Bachem #I-1160) as substrate 50 mM MES, 2 mM EDTA, 0.05% Brij 35, 2.5 mM L-cysteine, pH 6.0, room temperature. • 3. Cathepsin K: • 3 nM cathepsin K—activated from recombinant human procathepsin K from E. coli (Calbiochem #342001), 10 μM Z-Gly-Pro-Arg-AMC (Biomol #P-142) as substrate in 50 mM MES, 2 mM EDTA, 0.05% Brij 35, 2.5 mM L-cysteine, pH 6.0, room temperature. • 4. Cathepsin L: • 1 nM cathepsin L—isolated from human liver (Calbiochem #219402), 2 μM Z-Phe-Arg-AMC (Bachem #1-1160) as substrate in 50 mM MES, 2 mM EDTA, 0.05% Brij 35, 2.5 mM L-cysteine, pH 6.0, room temperature. • 5. Cathepsin S: • 0.5 nM recombinant human cathepsin S from E. coli (Calbiochem #219343), 20 μM Z-Val-Val-Arg-AMC (Bachem #1-1540) as substrate in 50 mM MES, 2 mM EDTA, 0.05% Brij 35, 2.5 mM L-cysteine, pH 6.0, room temperature. • The results of the in vitro determination are indicated in Table 1. The following abbreviations are used in Table 1: • The “Calpain activity” column, ++ stands for a calpain Ki (Ki(calpain)) of ≦40 nM and + means: 40 nM<Ki(Calpain)≦100 nM. • The “Sel. cat. B” column indicates the Ki(cathepsin B)/Ki(calpain) ratio. In this connection, ++ means a Ki(cathepsin B)/Ki(calpain) ratio of ≧30 and + means 10≦Ki(cathepsin B)/Ki(calpain)<30. • The “Sel. cat. K” column indicates the Ki(cathepsin K)/Ki(calpain) ratio. In this connection, ++ means a Ki(cathepsin K)/Ki(calpain) ratio of ≧30 and + means 10≦Ki(cathepsin K)/Ki(calpain)<30. • The “Sel. cat. L” column indicates the Ki(cathepsin L)/Ki(calpain) ratio. In this connection, ++ means a Ki(cathepsin L)/Ki(calpain) ratio of ≧50 and + means 30≦Ki(cathepsin L)/Ki(calpain)<50. • The “Sel. cat. S” column indicates the Ki(cathepsin S)/Ki(calpain) ratio. In this connection, ++ means a Ki(cathepsin S)/Ki(calpain) ratio of ≧100 and + means 50≦Ki(cathepsin S)/Ki(calpain)<100.

[4] = target: T4, cathepsin B isolated from human liver (Homo sapiens, UniProt P07858); assay: Cathepsin B kinetic fluorescence enzyme inhibition assay; settings: selectivity ratio versus calpain I
T4 construct: cathepsin B—isolated from human liver; purchased Calbiochem 219362; host or cells: human liver (tissue isolate)
Method in brief: as §1

[5] = target: T5, recombinant human cathepsin S (Homo sapiens, UniProt P25774); assay: Cathepsin S kinetic fluorescence enzyme inhibition assay; settings: selectivity ratio versus calpain I
T5 construct: purchased Calbiochem 219343; host or cells: E. coli
T5 sequence (P25774 115-331): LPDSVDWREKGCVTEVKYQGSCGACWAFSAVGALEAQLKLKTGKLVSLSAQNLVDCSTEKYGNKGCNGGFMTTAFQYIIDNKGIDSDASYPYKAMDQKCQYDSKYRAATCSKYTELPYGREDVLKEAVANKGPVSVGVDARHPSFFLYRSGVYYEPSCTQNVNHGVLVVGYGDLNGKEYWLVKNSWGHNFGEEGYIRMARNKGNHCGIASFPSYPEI
Method in brief: as §1

| Compound | Ki [2] | Sel cat. L (Ki(cathepsin L)/Ki(calpain) ratio) [1] | Sel cat. K (Ki(cathepsin K)/Ki(calpain) ratio) [3] | Sel cat. B (Ki(cathepsin B)/Ki(calpain) ratio) [4] | Sel cat. S (Ki(cathepsin S)/Ki(calpain) ratio) [5] |
| --- | --- | --- | --- | --- | --- |
| NC(=O)C(=O)C(Cc1ccc(OC(F)(F)F)cc1)NC(=O)c1cccnc1-n1ccc(-c2cccc(C(F)(F)F)c2)n1 (stereo not drawn) [Example 134, N-[3-Amino-2,3-dioxo-1-({4-[(trifluoromethyl)oxy]phenyl}methyl)propyl]-2-{3-[3-(trifluoromethyl)phenyl]-1H-pyrazol-1-yl}pyridine-3-carboxamide] | – | + (30≦Ki(cathepsin L)/Ki(calpain)<50) | ++ (Ki(cathepsin K)/Ki(calpain) ratio of ≧30) | ++ (Ki(cathepsin B)/Ki(calpain) ratio of ≧30) | + (50≦Ki(cathepsin S)/Ki(calpain)<100) |
| COc1ccc(OC)c(-c2ccn(-c3ncccc3C(=O)NC(Cc3ccccc3)C(=O)C(N)=O)n2)c1 (stereo not drawn) [Example 151, N-[3-Amino-2,3-dioxo-1-(phenylmethyl)propyl]-2-{3-[2,5-bis(methyloxy)phenyl]-1H-pyrazol-1-yl}pyridine-3-carboxamide] | 40 to 100 nM | ++ (Ki(cathepsin L)/Ki(calpain) ratio of ≧50) | ++ (Ki(cathepsin K)/Ki(calpain) ratio of ≧30) | ++ (Ki(cathepsin B)/Ki(calpain) ratio of ≧30) | – |
| N-{3-Amino-1-[(4-fluorophenyl)methyl]-2,3-dioxopropyl}-2-[3-(2-chloro-3-fluorophenyl)-1H-pyrazol-1-yl]pyridine-3-carboxamide [Example 154] | – | ++ (Ki(cathepsin L)/Ki(calpain) ratio of ≧50) | ++ (Ki(cathepsin K)/Ki(calpain) ratio of ≧30) | ++ (Ki(cathepsin B)/Ki(calpain) ratio of ≧30) | ++ (Ki(cathepsin S)/Ki(calpain) ratio of ≧100) |

Further lines, with some results ahead:

| Ki [2] | Compound | Sel cat. L (Ki(cathepsin L)/Ki(calpain) ratio) [1] | Sel cat. K (Ki(cathepsin K)/Ki(calpain) ratio) [3] | Sel cat. B (Ki(cathepsin B)/Ki(calpain) ratio) [4] | Sel cat. S (Ki(cathepsin S)/Ki(calpain) ratio) [5] |
| --- | --- | --- | --- | --- | --- |
| ≤ 40 nM | NC(=O)C(=O)C(Cc1ccccc1)NC(=O)c1cccnc1-n1ccc(-c2ccccc2)n1 (stereo not drawn) [Example 5, N-(3-Amino-1-benzyl-2,3-dioxopropyl)-2-(3-phenyl-1H-pyrazol-1-yl)nicotinamide] | ++ (Ki(cathepsin L)/Ki(calpain) ratio of ≧50) | + (10≦Ki(cathepsin K)/Ki(calpain)<30) | + (10≦Ki(cathepsin B)/Ki(calpain)<30) | ++ (Ki(cathepsin S)/Ki(calpain) ratio of ≧100) |
| ≤ 40 nM | NC(=O)C(=O)C(Cc1ccccc1)NC(=O)c1cc(Cl)cnc1-n1ccc(-c2ccc(N3CCOCC3)cc2)n1 (stereo not drawn) [Example 31, N-(3-Amino-1-benzyl-2,3-dioxopropyl)-5-chloro-2-[3-(4-morpholin-4-ylphenyl)-1H-pyrazol-1-yl]nicotinamide] | + (30≦Ki(cathepsin L)/Ki(calpain)<50) | + (10≦Ki(cathepsin K)/Ki(calpain)<30) | ++ (Ki(cathepsin B)/Ki(calpain) ratio of ≧30) | – |
| 40 to 100 nM | NC(=O)C(=O)C(Cc1ccccc1)NC(=O)c1cccnc1-n1ccc(-c2ccccn2)n1 (stereo not drawn) [Example 35, N-(3-Amino-1-benzyl-2,3-dioxopropyl)-2-(3-pyridin-2-yl-1H-pyrazol-1-yl)nicotinamide] | ++ (Ki(cathepsin L)/Ki(calpain) ratio of ≧50) | + (10≦Ki(cathepsin K)/Ki(calpain)<30) | + (10≦Ki(cathepsin B)/Ki(calpain)<30) | ++ (Ki(cathepsin S)/Ki(calpain) ratio of ≧100) |
| 40 to 100 nM | N#Cc1cnc(-n2ccc(-c3ccccc3)n2)c(C(=O)NC(Cc2ccccc2)C(=O)C(N)=O)c1 (stereo not drawn) [Example 82, N-(3-Amino-1-benzyl-2,3-dioxopropyl)-5-cyano-2-(3-phenyl-1H-pyrazol-1-yl)nicotinamide] | ++ (Ki(cathepsin L)/Ki(calpain) ratio of ≧50) | ++ (Ki(cathepsin K)/Ki(calpain) ratio of ≧30) | ++ (Ki(cathepsin B)/Ki(calpain) ratio of ≧30) | – |
